The source made the active and inactive calls. No rule for the calls is given here.
Target: Alkaline phosphatase, placental type (Homo sapiens) (UniProt P05187)
Test: inhibitors of placental alkaline phosphatase – biochemical, human PLAP isozyme, set 2, selectivity assay for human IAP inhibitor project, SAR follow-up (AID 540260)
Details: purified placental alkaline phosphatase enzyme activity

IC50 | Structure (SMILES)
> 100 µM (inactive) | O=C(CNS(=O)(=O)c1ccc2[nH]c(=O)oc2c1)NCc1ccc2c(c1)OCO2
> 100 µM (inactive) | N#Cc1ccc(CNC(=O)CCNS(=O)(=O)c2ccc3[nH]c(=O)oc3c2)cc1
> 100 µM (inactive) | O=C(CNS(=O)(=O)c1ccc2[nH]c(=O)oc2c1)Nc1ccc2c(c1)OCO2
> 100 µM (inactive) | Cc1ccc(C)c(NC(=O)CCNS(=O)(=O)c2ccc3[nH]c(=O)oc3c2)c1
> 100 µM (inactive) | COc1ccc(NC(=O)CNS(=O)(=O)c2ccc3[nH]c(=O)oc3c2)cc1OC

— PubChem BioAssay AID540260 (Sanford-Burnham Center for Chemical Genomics, 2011)
